# From patent US20210301349A1, “COMPOSITIONS AND METHODS FOR TREATING A TUMOR SUPPRESSOR DEFICIENT CANCER” (BETH ISRAEL DEACONESS MEDICAL CENTER, INC., priority 2016, published 2021)
# Entries after “also recorded” stand apart in the source; their conditions may differ.
# What was measured:
# [1] = test system: Pten^pc−/−; Trp53^pc−/− prostate tumors; assay: Flow cytometry of immune infiltrate in treated Pten^pc−/−; Trp53^pc−/− prostate tumors; assay type: in vivo, mouse; details: Trp53^pc−/− prostate tumors after treatment
# Experimental: (§1) Mice were allocated at random to experimental groups and studies were performed in an unblended manner. For treatment with the CXCR2 antagonist, SB225002 (Cayman Chemical #13336) was dissolved in DMSO (10 mg/ml) and diluted in vehicle (0.9% NaCl, 0.3% Tween 80) for in vivo administration. Mice (4 months of age) were treated daily for 10 days by intraperitoneal injection (5 mg/kg) and prostate tumor tissue (anterior lobes) was subjected to Flow Cytometry and histological analysis. For MRI analysis, mice (4 months of age) were treated daily for 21 days (Pten^pc−/−; Zbtb7a^pc−/−), for 14 days (Pten^pc−/−; Trp53^pc−/−) or for 14 days (Pten^pc−/−; Pml^pc−/−) by intraperitoneal injection (5 mg/kg). For depletion of Gr-1+/CD11b+ cells, Ly6G-depletion antibody (1A8, BioXcell) and control Rat IgG2a antibody (BioXcell) were diluted in phosphate-buffered saline (PBS) for in vivo administration. Mice (4 months of age) were treated every other day for 10 days by intraperitoneal injection (200-300 μg/mouse). […] Tumor volume quantification was performed by using VivoQuant and Image J software. […]
# For Flow Cytometry, spleen and lymph node single cell suspensions were prepared by mashing the tissue in 2% FBS/PBS. […] All staining mixtures were analyzed on a BD LSR II flow cytometer (Becton Dickinson). Resulting profiles were further processed and analyzed using the FlowJo 8.7 software.
# [2] = test system: Pten^pc−/−; Trp53^pc−/− tumors (anterior prostate lobes); assay: Histological analysis of treated Pten^pc−/−; Trp53^pc−/− tumors; assay type: in vivo, mouse; details: Trp53^pc−/− mice, 10 days of i.p. treatment, versus vehicle
# Experimental: as §1, with “mg/kg).” for “mg/kg). For depletion of Gr-1+/CD11b+ cells, Ly6G-depletion antibody (1A8, BioXcell) and control Rat IgG2a antibody (BioXcell) were diluted in phosphate-buffered saline (PBS) for in vivo administration. Mice (4 months of age) were treated every other day for 10 days by intraperitoneal injection (200-300 μg/mouse).”
# For western blotting, cell lysates were prepared by homogenizing tumor tissue with NP40 Buffer (Boston Bioproducts) supplemented with protease (Roche) and HALT phosphatase inhibitor cocktails (Thermo Scientific) and subsequently subjected to SDS-Gel separation (Invitrogen) and western blotting. […] Western blots were quantified using Image J software. […] Embedding and hematoxylin and eosin staining of sections were performed by the Histology Core at BIDMC and analyzed by a pathologist. […]
compound,measurement,setting,value
O=C(Nc1ccc([N+](=O)[O-])cc1O)Nc1ccccc1Br [SB225002],Treg cells (Foxp3+),[1],less Foxp3+ cells; also recorded: less Treg cells
same,intra-tumoral Gr-1+/CD11b+ cells,[1],decrease of Gr-1+/CD11b+ cells
same,tumor burden by histological analysis,[2],reduced tumor burden
same,tumor burden by histological analysis,[2]; listed as CXCR2 inhibitor,significantly diminished tumor involvement
